From patent US11034671B2, “Apoptosis signal-regulating kinase inhibitors and uses thereof” (SICHUAN HAISCO PHARMACEUTICAL CO., LTD., priority 2017, dated 2021)

Experiments:
[1] = test system: phospho-p38 (downstream target of ASK1 activation) in HK-2 cells; experiment: HK-2 phospho-p38 HTRF assay (cellular IC50); format: cell-based; conditions: Homo sapiens, compound 2 h then 1 mM H2O2 30 min, phospho-T180/Y182 p38 HTRF, read-out: p38 MAPK IC50
Experimental: Monolayers of HK-2 cells were grown on 384-well plates at 8000 cells/well and incubated at 37° C. with 5% CO2/95% air in keratinocyte serum-free medium (Thermofisher, Carlsbad, Calif.) supplemented with recombinant human EGF (5 ng/mL) and bovine pituitary extract (50 μg/mL). 24 hours after seeding, cells were treated with test compounds for various concentrations for 2 hours and followed by 30 min treatment of H2O2 with final concentration of 1 mM. At the end of cell treatment, the cell medium was removed, and the cells were washed once with ice-cold PBS and subjected to measure the level of phosphor-p38 (downstream target of ASK1 activation) using Cisbio's P38 phospho-T180/Y182 HTRF kit from Cisbio (Cat. 64P38PEG). […] The compounds were then diluted directly into the assays such that the final concentration of DMSO was 0.4%. […] IC50 were calculated with a log (dose)-response curve using four parameter variable nonlinear fitting, with log(dose) in X-axis and (Em665/Em620×10000) ratio as Y-axis.

ASK1 = ASK1 (Homo sapiens (Human), UniProt Q99683); experiment: ASK1 KINOMEscan assay (biochemical Kd), competition binding; conditions: DNA-tagged ASK1 kinase, 11-point 3-fold dilution
Experimental: The binding of compounds to ASK1 were determined using DiscoverX's proprietary technology. […] The assay is performed by combining three components: DNA-tagged ASK1 kinase; immobilized ligand; and a test compound. The ability of the test compound to compete with the immobilized ligand is measured via quantitative PCR of the DNA tag. […] The liganded beads were blocked with excess biotin and washed with blocking buffer (SeaBlock (Pierce), 1% BSA, 0.05% Tween 20, 1 mM DTT) to remove unbound ligand and to reduce nonspecific binding. […] Kds were determined using an 11-point 3-fold compound dilution series with three DMSO control points. […] The compounds were then diluted directly into the assays such that the final concentration of DMSO was 0.9%. All reactions were performed in polypropylene 384-well plate. […] The kinase concentration in the eluates was measured by qPCR. Most Kds were determined using a compound top concentration=30,000 nM. […] Binding constants (Kds) were calculated with a standard dose-response curve using the Hill equation: Response=Background+{(Signal−Background)/[1+(Kd^Hill Slope/Dose^Hill Slope)]}, the Hill Slope was set to −1, and curves were fitted using a non-linear least square fit with the Levenberg-Marquardt algorithm.

Sequence of ASK1 (Q99683 whole entry): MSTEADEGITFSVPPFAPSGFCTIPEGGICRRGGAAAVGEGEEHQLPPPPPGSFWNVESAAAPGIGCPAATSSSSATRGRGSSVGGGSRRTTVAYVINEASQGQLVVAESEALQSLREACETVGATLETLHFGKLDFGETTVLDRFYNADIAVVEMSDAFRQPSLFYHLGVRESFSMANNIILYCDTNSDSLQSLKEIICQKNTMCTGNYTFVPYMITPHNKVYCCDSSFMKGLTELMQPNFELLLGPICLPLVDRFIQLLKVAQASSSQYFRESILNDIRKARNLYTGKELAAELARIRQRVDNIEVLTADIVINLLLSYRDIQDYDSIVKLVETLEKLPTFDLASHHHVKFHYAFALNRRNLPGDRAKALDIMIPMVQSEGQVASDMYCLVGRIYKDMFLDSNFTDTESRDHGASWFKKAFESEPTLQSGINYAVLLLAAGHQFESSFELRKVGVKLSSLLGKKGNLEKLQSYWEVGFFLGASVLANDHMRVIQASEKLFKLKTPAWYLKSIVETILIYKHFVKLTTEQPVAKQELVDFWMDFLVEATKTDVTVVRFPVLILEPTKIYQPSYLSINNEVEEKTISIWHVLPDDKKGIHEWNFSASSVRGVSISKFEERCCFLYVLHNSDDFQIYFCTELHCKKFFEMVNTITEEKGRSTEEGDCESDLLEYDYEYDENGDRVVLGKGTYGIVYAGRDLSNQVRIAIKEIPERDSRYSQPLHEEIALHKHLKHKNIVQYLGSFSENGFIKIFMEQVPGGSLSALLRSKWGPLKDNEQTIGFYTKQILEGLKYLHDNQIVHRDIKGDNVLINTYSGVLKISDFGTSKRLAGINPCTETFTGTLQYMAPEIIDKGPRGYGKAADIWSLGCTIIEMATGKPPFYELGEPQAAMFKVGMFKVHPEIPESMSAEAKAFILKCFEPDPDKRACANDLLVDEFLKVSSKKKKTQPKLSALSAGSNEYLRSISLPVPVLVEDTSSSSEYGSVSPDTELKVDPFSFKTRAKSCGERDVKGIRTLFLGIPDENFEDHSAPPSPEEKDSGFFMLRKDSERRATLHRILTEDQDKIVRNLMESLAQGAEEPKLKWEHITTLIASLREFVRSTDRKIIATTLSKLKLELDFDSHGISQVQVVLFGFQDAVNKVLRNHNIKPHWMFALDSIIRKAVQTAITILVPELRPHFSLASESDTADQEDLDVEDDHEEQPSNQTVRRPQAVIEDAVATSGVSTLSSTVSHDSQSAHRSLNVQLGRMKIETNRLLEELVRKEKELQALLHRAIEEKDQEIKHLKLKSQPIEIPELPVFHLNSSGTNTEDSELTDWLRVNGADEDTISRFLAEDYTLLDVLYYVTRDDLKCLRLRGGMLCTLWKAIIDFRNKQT

Row | SMILES | IC50 [1] [nM] | Kd (ASK1) [nM]
1 | O=C1Nc2cccc(n2)-c2nncn2CCCCCOc2ccc(-c3ccc(C4CC4)nc3)cc21 [Example 19] | 100 to 1000 | 10 to 100
2 | O=C1Nc2cccc(n2)-c2nncn2CCCCOc2ccc(-c3ccc(C4CC4)nc3)cc21 [Example 23] | 100 to 1000 | < 10
3 | O=C1Nc2cccc(n2)-c2nncn2CCCCOc2ccc(-c3ccsc3)cc21 [Example 42] | 100 to 1000 | < 10
4 | O=C1Nc2cccc(n2)-c2nncn2CCCCOc2ccc(C3CC3)cc21 [Example 46] | 100 to 1000 | < 10
5 | Cc1ccc(-c2ccc3c(c2)C(=O)Nc2cccc(n2)-c2nncn2C(C)CCCO3)cn1 (stereo not shown) [Example 56] | < 100 | < 10
6 | Cc1cc2c(cc1-n1cnc(C3CC3)c1)C(=O)Nc1cccc(n1)-c1nncn1CCCCO2 [Example 61] | < 100 | < 10
7 | N#Cc1ccc(-c2ccc3c(c2)C(=O)Nc2cccc(n2)-c2nncn2CCCCO3)cn1 [Example 63] | 100 to 1000 | < 10
8 | O=C1Nc2cccc(n2)-c2nncn2CCCOc2ccc(-n3cnc(C4CC4)c3)cc21 [Example 66] | 100 to 1000 | < 10
9 | Cc1ccc(-c2ccc3c(c2)C(=O)Nc2cccc(n2)-c2nncn2C(C)CCO3)cn1 (stereo not shown) [Example 67] | < 100 | < 10
10 | Cc1ccc(-c2ccc3c(c2)C(=O)Nc2cccc(n2)-c2nncn2C2CC(CO3)C2)cn1 [Example 69] | < 100 | –
11 | Cc1ccc(-c2ccc3c(c2)C(=O)Nc2cccc(n2)-c2nncn2CCCOC3)cn1 [Example 70] | < 100 | < 10
12 | Cc1ccc(-c2ccc3c(c2)C(=O)Nc2cccc(n2)-c2nncn2C2CCC(CC2)O3)cn1 [Example 71] | < 100 | –

Next, values leading:

Row | IC50 [1] [nM] | Kd (ASK1) [nM] | SMILES
13 | < 100 | < 10 | O=C1Nc2cccc(n2)-c2nncn2CCCCOc2ccc(-n3cnc(C4CC4)c3)cc21 [Example 22]
14 | < 100 | < 10 | Cc1ccc(-c2ccc3c(c2)C(=O)Nc2cccc(n2)-c2nncn2CCCCO3)cn1 [Example 24]
15 | < 100 | < 10 | CC1(C)Cc2cc3c(cc2O1)C(=O)Nc1cccc(n1)-c1nncn1CCCCO3 [Example 30]
16 | < 100 | < 10 | O=C1Nc2cccc(n2)-c2nncn2CCCOc2ccc(-c3ccc(C4CC4)nc3)cc21 [Example 37]
17 | < 100 | < 10 | O=C1Nc2cccc(n2)-c2nncn2CCCCOc2ccc(-c3ccccc3)cc21 [Example 38]
18 | < 100 | < 10 | O=C1Nc2cccc(n2)-c2nncn2CCCCOc2ccc(-c3ccc(F)nc3)cc21 [Example 39]
19 | < 100 | < 10 | O=C1Nc2cccc(n2)-c2nncn2CCCCOc2ccc(-c3ccc(C(F)(F)F)nc3)cc21 [Example 40]
20 | < 100 | – | O=C1Nc2cccc(n2)-c2nncn2CCCCOc2ccc(N3CCOCC3)cc21 [Example 43]
21 | < 100 | < 10 | CCc1ccc(-c2ccc3c(c2)C(=O)Nc2cccc(n2)-c2nncn2CCCCO3)cn1 [Example 47]
22 | < 100 | – | Cn1cc(-c2ccc3c(c2)C(=O)Nc2cccc(n2)-c2nncn2CCCCO3)cn1 [Example 48]
23 | < 100 | < 10 | CC1CCCOc2ccc(-c3ccc(C4CC4)nc3)cc2C(=O)Nc2cccc(n2)-c2nncn21 (stereo not shown) [Example 50]
24 | < 100 | < 10 | O=C1Nc2cccc(n2)-c2nncn2CCCCOc2ccc(-c3ccc(C(F)F)nc3)cc21 [Example 52]
25 | < 100 | < 10 | O=C1Nc2cccc(n2)-c2nncn2CCCCOc2ccc(-c3ccc(Cl)nc3)cc21 [Example 54]
